Results reported in patent EP2768830B1, “APOPTOSIS-INDUCING AGENTS FOR THE TREATMENT OF CANCER AND IMMUNE AND AUTOIMMUNE DISEASES” (AbbVie Inc., priority 2011, dated 2013).
pEC50, pKi: −log10 of the molar value. Like-named read-outs stand apart in the source and are kept apart here.

Key:
GST-Bcl-xL = GST-Bcl-xL (Homo sapiens, UniProt Q07817); settings: read-out: TR-FRET binding Bcl-xL Ki
[1] = system: mouse FL5.12 cells transfected with Bcl-XL; assay: FL5.12 cellular assay (cell viability, CellTiter-Glo); type: cell-based; settings: for pEC50: FL5.12 cells transfected with Bcl-XL, IL-3-depleted, 3% FBS assay media, 24 hours, CellTiter-Glo, read-out: FL5.12 Bcl-xL, - IL3, EC 50;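 on all read-outs here: each EC50 determination derived from duplicate measurements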
Procedure: For assaying the compound activity, the cells were exchanged into an IL-3-depleted deprivation media, which was identical to the growth media except for the absence of FBS and WEHI-3B conditional media, for 2 days. Then the cells were exchanged to 3% FBS assay media (RPMI with 2 mM glutamine, 1% 100 mM sodium pyruvate, 2% 1 M HEPES, 4 µL/L of β-mercaptoethanol, 1% penicillin-streptomycin, 3% FBS). Compounds in series dilutions were added, and the cells were cultured for 24 hours. Compounds in series dilutions were added, and the cells were cultured for 24 hours. Cell viability was assayed using the CellTiter-Glo assay (Promega Corp., Madison, WI) according to the manufacturer instructions. Individual determinations were the result of duplicate values.

Sequence of GST-Bcl-xL (Q07817 whole entry): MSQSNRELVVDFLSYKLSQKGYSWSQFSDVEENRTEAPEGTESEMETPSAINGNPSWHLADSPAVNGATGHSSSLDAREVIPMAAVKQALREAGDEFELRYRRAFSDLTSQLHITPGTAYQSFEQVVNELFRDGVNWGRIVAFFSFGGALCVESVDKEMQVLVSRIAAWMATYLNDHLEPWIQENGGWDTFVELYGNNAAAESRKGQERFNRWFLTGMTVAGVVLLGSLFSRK

Cc1c(-c2ccc(N3CCc4cccc(C(=O)Nc5nc6ccccc6s5)c4C3)nc2C(=O)O)cccc1N(C)C(=O)C1(C)CCCCC1 [Example 179, 6-[8-(1,3-benzothiazol-2-ylcarbamoyl)-3,4-dihydroisoquinolin-2(1H)-yl]-3-(2-methyl-3-{methyl[(1-methylcyclohexyl)carbonyl]amino}phenyl)pyridine-2-carboxylic acid]
pKi (GST-Bcl-xL): > 10.00 | EC50 ([1]; Mus musculus, FL5.12, 24 h, read-out: FL5.12 Bcl-xL, - IL3, EC 50 (nM)): 6 nM

Cc1noc(-c2cccc(Cn3cc(-c4ccc(N5CCc6cccc(C(=O)Nc7nc8ccccc8s7)c6C5)nc4C(=O)O)cn3)c2)n1 [Example 29, 6-[8-(1,3-benzothiazol-2-ylcarbamoyl)-3,4-dihydroisoquinolin-2(1H)-yl]-3-{1-[3-(3-methyl-1,2,4-oxadiazol-5-yl)benzyl]-1H-pyrazol-4-yl}pyridine-2-carboxylic acid]
pKi (GST-Bcl-xL): 7.74 | pEC50 ([1]; Mus musculus): < 6.00

O=C(Nc1nc2ccccc2s1)c1cccc2c1CN(c1ccc(-c3cnn(Cc4ccccc4[N+](=O)[O-])c3)c(C(=O)O)n1)CC2 [Example 57, 6-[8-(1,3-benzothiazol-2-ylcarbamoyl)-3,4-dihydroisoquinolin-2(1H)-yl]-3-[1-(2-nitrobenzyl)-1H-pyrazol-4-yl]pyridine-2-carboxylic acid]
pKi (GST-Bcl-xL): 7.85 | pEC50 ([1]; Mus musculus): 6.13

Cc1c(-c2ccc(N3CCc4cccc(C(=O)Nc5nc6ccccc6s5)c4C3)nc2C(=O)O)cnn1CC1CCCOC1 (stereo not shown) [Example 66, 6-[8-(1,3-benzothiazol-2-ylcarbamoyl)-3,4-dihydroisoquinolin-2(1H)-yl]-3-[5-methyl-1-(tetrahydro-2H-pyran-3-ylmethyl)-1H-pyrazol-4-yl]pyridine-2-carboxylic acid]
pKi (GST-Bcl-xL): 8.52 | pEC50 ([1]; Mus musculus): 7.22

Cc1c(-c2ccc(N3CCc4cccc(C(=O)Nc5nc6ccccc6s5)c4C3)nc2C(=O)O)cnn1CC1(C)CCCCC1 [Example 82, 6-[8-(1,3-benzothiazol-2-ylcarbamoyl)-3,4-dihydroisoquinolin-2(1H)-yl]-3-{5-methyl-1-[(1-methylcyclohexyl)methyl]-1H-pyrazol-4-yl}pyridine-2-carboxylic acid]
pKi (GST-Bcl-xL): 9.30 | pEC50 ([1]; Mus musculus): 8.10

Cc1c(-c2ccc(N3CCc4cccc(C(=O)Nc5nc6ccccc6s5)c4C3)nc2C(=O)O)cnn1CC1CCCCO1 (stereo not shown) [Example 154, 6-[8-(1,3-benzothiazol-2-ylcarbamoyl)-3,4-dihydroisoquinolin-2(1H)-yl]-3-[5-methyl-1-(tetrahydro-2H-pyran-2-ylmethyl)-1H-pyrazol-4-yl]pyridine-2-carboxylic acid]
pKi (GST-Bcl-xL): > 10.00 | pEC50 ([1]; Mus musculus): 7.82

O=C(Nc1nc2ccccc2s1)c1cccc2c1CN(c1ccc(-c3cnn(CCc4ccccc4)c3)c(C(=O)O)n1)CC2 [Example 38, 6-[8-(1,3-benzothiazol-2-ylcarbamoyl)-3,4-dihydroisoquinolin-2(1H)-yl]-3-[1-(2-phenylethyl)-1H-pyrazol-4-yl]pyridine-2-carboxylic acid]
pKi (GST-Bcl-xL): 7.32 | pEC50 [1]: < 6.00

Cc1c(-c2ccc(N3CCc4cccc(C(=O)Nc5nc6ccccc6s5)c4C3)nc2C(=O)O)cnn1CC1CCC(F)(F)CC1 [Example 73, 6-[8-(1,3-benzothiazol-2-ylcarbamoyl)-3,4-dihydroisoquinolin-2(1H)-yl]-3-{1-[(4,4-difluorocyclohexyl)methyl]-5-methyl-1H-pyrazol-4-yl}pyridine-2-carboxylic acid]
pKi (GST-Bcl-xL): 9.05 | pEC50 ([1]; Mus musculus): 8.10

O=C(Nc1nc2ccccc2s1)c1cccc2c1CN(c1ccc(-c3cnn(Cc4cccnc4)c3)c(C(=O)O)n1)CC2 [Example 3, 6-[8-(1,3-benzothiazol-2-ylcarbamoyl)-3,4-dihydroisoquinolin-2(1H)-yl]-3-[1-(pyridin-3-ylmethyl)-1H-pyrazol-4-yl]pyridine-2-carboxylic acid]
pKi (GST-Bcl-xL): 6.59 | pEC50 [1]: < 6.00

Cc1c(-c2ccc(N3CCc4cccc(C(=O)Nc5nc6ccccc6s5)c4C3)nc2C(=O)O)cnn1CC1(OCCO)CCCCC1 [Example 169, 6-[8-(1,3-benzothiazol-2-ylcarbamoyl)-3,4-dihydroisoquinolin-2(1H)-yl]-3-(1-{[1-(2-hydroxyethoxy)cyclohexyl]methyl}-5-methyl-1H-pyrazol-4-yl)pyridine-2-carboxylic acid]
pKi (GST-Bcl-xL): > 10.00 | pEC50 ([1]; Mus musculus): 8.00

COCCC1(Cn2ncc(-c3ccc(N4CCc5cccc(C(=O)Nc6nc7ccccc7s6)c5C4)nc3C(=O)O)c2C)CCCC(C)(C)C1 (stereo not shown) [Example 146, 6-[8-(1,3-benzothiazol-2-ylcarbamoyl)-3,4-dihydroisoquinolin-2(1H)-yl]-3-(1-{[1-(2-methoxyethyl)-3,3-dimethylcyclohexyl]methyl}-5-methyl-1H-pyrazol-4-yl)pyridine-2-carboxylic acid]
pKi (GST-Bcl-xL): > 10.00 | pEC50 ([1]; Mus musculus): 7.96

COc1ccc2nc(NC(=O)c3cccc4c3CN(c3ccc(-c5cnn(Cc6ccccc6)c5)c(C(=O)O)n3)CC4)sc2c1 [Example 11, 3-(1-benzyl-1H-pyrazol-4-yl)-6-{8-[(6-methoxy-1,3-benzothiazol-2-yl)carbamoyl]-3,4-dihydroisoquinolin-2(1H)-yl}pyridine-2-carboxylic acid]
pKi (GST-Bcl-xL): 6.74 | pEC50 [1]: < 6.00

Cc1c(-c2ccc(N3CCc4cccc(C(=O)Nc5nc6ccccc6s5)c4C3)nc2C(=O)O)cc(C#N)n1CC1(N2CCOCC2)CCCCC1 [Example 168, 6-[8-(1,3-benzothiazol-2-ylcarbamoyl)-3,4-dihydroisoquinolin-2(1H)-yl]-3-(5-cyano-2-methyl-1-{[1-(morpholin-4-yl)cyclohexyl]methyl}-1H-pyrrol-3-yl)pyridine-2-carboxylic acid]
pKi (GST-Bcl-xL): > 10.00 | pEC50 ([1]; Mus musculus): 7.85

COC1(Cn2ncc(-c3ccc(N4CCc5cccc(C(=O)Nc6nc7ccccc7s6)c5C4)nc3C(=O)O)c2C)CCCC(C)(C)C1 (stereo not shown) [Example 157, 6-[8-(1,3-benzothiazol-2-ylcarbamoyl)-3,4-dihydroisoquinolin-2(1H)-yl]-3-{1-[(1-methoxy-3,3-dimethylcyclohexyl)methyl]-5-methyl-1H-pyrazol-4-yl}pyridine-2-carboxylic acid]
pKi (GST-Bcl-xL): > 10.00 | pEC50 ([1]; Mus musculus): 9.52

CN(C)Cc1cccc(Cn2cc(-c3ccc(N4CCc5cccc(C(=O)Nc6nc7ccccc7s6)c5C4)nc3C(=O)O)cn2)c1 [Example 68, 6-[8-(1,3-benzothiazol-2-ylcarbamoyl)-3,4-dihydroisoquinolin-2(1H)-yl]-3-(1-{3-[(dimethylamino)methyl]benzyl}-1H-pyrazol-4-yl)pyridine-2-carboxylic acid]
pKi (GST-Bcl-xL): 6.55 | pEC50 ([1]; Mus musculus): < 6.00

O=C(Nc1nc2ccccc2s1)c1cccc2c1CN(c1ccc(-c3cnn(CC4CCCOC4)c3)c(C(=O)O)n1)CC2 (stereo not shown) [Example 56, 6-[8-(1,3-benzothiazol-2-ylcarbamoyl)-3,4-dihydroisoquinolin-2(1H)-yl]-3-[1-(tetrahydro-2H-pyran-3-ylmethyl)-1H-pyrazol-4-yl]pyridine-2-carboxylic acid]
pKi (GST-Bcl-xL): 7.62 | pEC50 ([1]; Mus musculus): 6.23

O=C(Nc1nc2cccc(Cl)c2s1)c1cccc2c1CN(c1ccc(-c3cnn(Cc4ccccc4)c3)c(C(=O)O)n1)CC2 [Example 21, 3-(1-benzyl-1H-pyrazol-4-yl)-6-{8-[(7-chloro-1,3-benzothiazol-2-yl)carbamoyl]-3,4-dihydroisoquinolin-2(1H)-yl}pyridine-2-carboxylic acid]
pKi (GST-Bcl-xL): 6.74 | pEC50 [1]: < 6.00

Cc1c(-c2ccc(N3CCc4cccc(C(=O)Nc5nc6ccccc6s5)c4C3)nc2C(=O)O)ccnc1N(C)c1ccccc1 [Example 143, 6-[8-(1,3-benzothiazol-2-ylcarbamoyl)-3,4-dihydroisoquinolin-2(1H)-yl]-3'-methyl-2'-[methyl(phenyl)amino]-3,4'-bipyridine-2-carboxylic acid]
pKi (GST-Bcl-xL): > 10.00 | pEC50 ([1]; Mus musculus): 7.72

COCCCC(c1ccccc1)n1cc(-c2ccc(N3CCc4cccc(C(=O)Nc5nc6ccccc6s5)c4C3)nc2C(=O)O)cn1 (stereo not shown) [Example 94, 6-[8-(1,3-benzothiazol-2-ylcarbamoyl)-3,4-dihydroisoquinolin-2(1H)-yl]-3-[1-(4-methoxy-1-phenylbutyl)-1H-pyrazol-4-yl]pyridine-2-carboxylic acid]
pKi (GST-Bcl-xL): 8.30 | pEC50 ([1]; Mus musculus): 6.60

COCCC1(Cn2ncc(-c3ccc(N4CCc5cccc(C(=O)Nc6nc7ccccc7s6)c5C4)nc3C(=O)O)c2C)CCCCCC1 [Example 134, 6-[8-(1,3-benzothiazol-2-ylcarbamoyl)-3,4-dihydroisoquinolin-2(1H)-yl]-3-(1-{[1-(2-methoxyethyl)cycloheptyl]methyl}-5-methyl-1H-pyrazol-4-yl)pyridine-2-carboxylic acid]
pKi (GST-Bcl-xL): > 10.00 | pEC50 ([1]; Mus musculus): 9.05

O=C(Nc1nc2ccccc2s1)c1cccc2c1CN(c1ccc(-c3cnn(Cc4ccccc4S(=O)(=O)N4CCOCC4)c3)c(C(=O)O)n1)CC2 [Example 72, 6-[8-(1,3-benzothiazol-2-ylcarbamoyl)-3,4-dihydroisoquinolin-2(1H)-yl]-3-{1-[2-(morpholin-4-ylsulfonyl)benzyl]-1H-pyrazol-4-yl}pyridine-2-carboxylic acid]
pKi (GST-Bcl-xL): 7.55 | pEC50 ([1]; Mus musculus): < 6.00

Cc1c(NC2CCCCC2)cccc1-c1ccc(N2CCc3cccc(C(=O)Nc4nc5ccccc5s4)c3C2)nc1C(=O)O [Example 118, 6-[8-(1,3-benzothiazol-2-ylcarbamoyl)-3,4-dihydroisoquinolin-2(1H)-yl]-3-[3-(cyclohexylamino)-2-methylphenyl]pyridine-2-carboxylic acid]
pKi (GST-Bcl-xL): 9.70 | pEC50 ([1]; Mus musculus): 6.44

Cc1c(-c2ccc(N3CCc4cccc(C(=O)Nc5nc6ccccc6s5)c4C3)nc2C(=O)O)c(CO)nn1Cc1ccccc1 [Example 30, 6-[8-(1,3-benzothiazol-2-ylcarbamoyl)-3,4-dihydroisoquinolin-2(1H)-yl]-3-[1-benzyl-3-(hydroxymethyl)-5-methyl-1H-pyrazol-4-yl]pyridine-2-carboxylic acid]
pKi (GST-Bcl-xL): 8.70 | pEC50 ([1]; Mus musculus): 6.53
